Histology score data for one molecule are collected here from patent US10281451B2, “Method of determining the viability of at least one cell” (The Regents of the University of Michigan, priority 2012, dated 2019).

The structures appear in SMILES notation. Some results are limits rather than exact numbers.

The assay deals with EVPOME tissue-engineered constructs (primary human oral keratinocytes). Briefly: Quantitative histology scoring (H&E) of rapamycin-treated tissue-engineered constructs. It counts as cell-based. The text has this: A section was sliced across the construct, near the edge, fixed in 10% phosphate buffered formalin, and embedded in paraffin for hematoxylin and eosin (H&E) histology and immunohistochemistry (IHC). All the engineered tissues were sectioned for histological assessment and some for IHC imaging. Some engineered tissues were randomly selected for punch biopsies for WST-1 assay. The remaining intact constructs were non-invasively assessed with label-free optical imaging. For each construct, three sites were randomly selected for optical imaging. A tissue-engineered construct consists of three layers: keratin, living cellular, and dermal equivalent layer. Thus, for each site, one to two optical images were measured at lower and upper depths for the proliferating basal layer and the differentiating cellular layer respectively.
10 batches tissue-engineered constructs manufactured with cells from 10 independent patients were studied: 5 batches for the rapamycin experiment and 5 batches for the thermal-stress experiment. For the rapamycin experiment, 2 nM rapamycin was added in the medium at the cell culture stage for five days prior to tissue-stage culture and/or the tissue culture stage. Therefore, a total of four experimental conditions were created in the rapamycin experiment: • 1. Control+control: no rapamycin was added to the cultures during the two stages. • 2. Control+rapa: no rapamycin was added to the first cell culture stage medium; rapamycin was added to the second tissue culture stage medium. • 3. Rapa+control: rapamycin was added to the first cell culture stage medium; no rapamycin was added to the second tissue culture stage medium. • 4. Rapa+rapa: rapamycin was added to the medium used in both the culture stages.
All H&E histology slides were assessed by a panel of three blinded expert readers. Classification criteria were previously developed and detailed, where a viability score of 1 (least viable), 2, 3, 4, or 5 (most viable) was used. The classification criteria included the basal cell layer health, the construct cellular organization, and the keratin layer structural quality. The readers individually assigned a score to each EVPOME histology slide, while blinded to the construct condition and to the other readers' scores.
Quantitative histology scoring was performed to assess tissue morphology. Two groups of cultured cells were categorized: well-growing culture and poorly-growing culture. The well-growing and the poorly-growing cultures were defined by their control+control histology scores. A control+control score >3 is defined as well-growing. A control+control score <=3 is defined as poorly growing.

In the case of `CO[C@H]1C[C@@H]2CC[C@@H](C)[C@@](O)(O2)C(=O)C(=O)N2CCCC[C@H]2C(=O)O[C@H]([C@H](C)C[C@@H]2CC[C@@H](O)[C@H](OC)C2)CC(=O)[C@H](C)/C=C(\C)[C@@H](O)[C@@H](OC)C(=O)[C@H](C)C[C@H](C)/C=C/C=C/C=C/1C` [Rapamycin], the histology score entry is on record as “<= 3” (control+rapa construct (2 nM rapamycin in tissue culture stage only), poorly-growing culture, score 1 to 5); 4.7 (rapa+control construct (2 nM rapamycin in cell culture stage only), poorly-growing culture, score 1 (least viable) to 5 (most viable)); “<= 3” (rapa+rapa construct (2 nM rapamycin in both culture stages), poorly-growing culture, score 1 to 5); > 3 (well-growing culture, all four constructs incl. rapa+control, control+rapa, rapa+rapa, score 1 to 5).
